# Measurements from patent publication US12473294B2, “Selective modulators of mutant LRRK2 proteolysis and associated methods of use” (Arvinas Operations, Inc., priority 2020, dated 2025).
# How the values were obtained:
# [1] = biological target: T1, G2019S LRRK2 (Homo sapiens, UniProt Q5S007, G2019S); assay: LRRK2 degradation HiBit assay, G2019S LRRK2 tagged with a HiBit tag expressed in HEK293 cells; assay type: cell-based; conditions: 24 hours compound incubation; for Dmax: HEK293, HEK293 cells; for DC50: HEK293 cells
# T1 construct: expressed in transfected cells; host or cells: HEK293 (ATCC CRL-1573)
# Summary of the method: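 HEK293 cells were transiently transfected with G2019S LRRK2 carrying a C-terminal HiBit tag (ubiquitin promoter) plus firefly luciferase, then exposed to compound for 24 h at 37 °C. Dual luminescence gave the HiBit/luciferase ratio ×1000, normalised to DMSO. DC50 and Dmax were fitted per plate.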
# [2] = biological target: T2, wildtype LRRK2 (Homo sapiens, UniProt Q5S007); assay: LRRK2 degradation HiBit assay, wildtype LRRK2 tagged with a HiBit tag in HEK293 cells; assay type: cell-based; conditions: 24 hours compound incubation; for Dmax: read-out: ** WT Dmax (%); for DC50: read-out: *WT DC50
# T2 construct: endogenous in cells; host or cells: HEK293 with HiBit knocked in at the 3' end of the endogenous LRRK2 gene, stably expressing firefly luciferase
# Summary of the method: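 HEK293 cells transiently co-transfected with ubiquitin-promoter-driven C-terminally HiBit-tagged wildtype LRRK2 plus firefly luciferase, then treated with compound for 24 h at 37° C. HiBit/luciferase ratio ×1000 normalized to DMSO median; DC50 and Dmax fitted per plate, six replicates across two days.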
# T2 sequence (Q5S007 whole entry): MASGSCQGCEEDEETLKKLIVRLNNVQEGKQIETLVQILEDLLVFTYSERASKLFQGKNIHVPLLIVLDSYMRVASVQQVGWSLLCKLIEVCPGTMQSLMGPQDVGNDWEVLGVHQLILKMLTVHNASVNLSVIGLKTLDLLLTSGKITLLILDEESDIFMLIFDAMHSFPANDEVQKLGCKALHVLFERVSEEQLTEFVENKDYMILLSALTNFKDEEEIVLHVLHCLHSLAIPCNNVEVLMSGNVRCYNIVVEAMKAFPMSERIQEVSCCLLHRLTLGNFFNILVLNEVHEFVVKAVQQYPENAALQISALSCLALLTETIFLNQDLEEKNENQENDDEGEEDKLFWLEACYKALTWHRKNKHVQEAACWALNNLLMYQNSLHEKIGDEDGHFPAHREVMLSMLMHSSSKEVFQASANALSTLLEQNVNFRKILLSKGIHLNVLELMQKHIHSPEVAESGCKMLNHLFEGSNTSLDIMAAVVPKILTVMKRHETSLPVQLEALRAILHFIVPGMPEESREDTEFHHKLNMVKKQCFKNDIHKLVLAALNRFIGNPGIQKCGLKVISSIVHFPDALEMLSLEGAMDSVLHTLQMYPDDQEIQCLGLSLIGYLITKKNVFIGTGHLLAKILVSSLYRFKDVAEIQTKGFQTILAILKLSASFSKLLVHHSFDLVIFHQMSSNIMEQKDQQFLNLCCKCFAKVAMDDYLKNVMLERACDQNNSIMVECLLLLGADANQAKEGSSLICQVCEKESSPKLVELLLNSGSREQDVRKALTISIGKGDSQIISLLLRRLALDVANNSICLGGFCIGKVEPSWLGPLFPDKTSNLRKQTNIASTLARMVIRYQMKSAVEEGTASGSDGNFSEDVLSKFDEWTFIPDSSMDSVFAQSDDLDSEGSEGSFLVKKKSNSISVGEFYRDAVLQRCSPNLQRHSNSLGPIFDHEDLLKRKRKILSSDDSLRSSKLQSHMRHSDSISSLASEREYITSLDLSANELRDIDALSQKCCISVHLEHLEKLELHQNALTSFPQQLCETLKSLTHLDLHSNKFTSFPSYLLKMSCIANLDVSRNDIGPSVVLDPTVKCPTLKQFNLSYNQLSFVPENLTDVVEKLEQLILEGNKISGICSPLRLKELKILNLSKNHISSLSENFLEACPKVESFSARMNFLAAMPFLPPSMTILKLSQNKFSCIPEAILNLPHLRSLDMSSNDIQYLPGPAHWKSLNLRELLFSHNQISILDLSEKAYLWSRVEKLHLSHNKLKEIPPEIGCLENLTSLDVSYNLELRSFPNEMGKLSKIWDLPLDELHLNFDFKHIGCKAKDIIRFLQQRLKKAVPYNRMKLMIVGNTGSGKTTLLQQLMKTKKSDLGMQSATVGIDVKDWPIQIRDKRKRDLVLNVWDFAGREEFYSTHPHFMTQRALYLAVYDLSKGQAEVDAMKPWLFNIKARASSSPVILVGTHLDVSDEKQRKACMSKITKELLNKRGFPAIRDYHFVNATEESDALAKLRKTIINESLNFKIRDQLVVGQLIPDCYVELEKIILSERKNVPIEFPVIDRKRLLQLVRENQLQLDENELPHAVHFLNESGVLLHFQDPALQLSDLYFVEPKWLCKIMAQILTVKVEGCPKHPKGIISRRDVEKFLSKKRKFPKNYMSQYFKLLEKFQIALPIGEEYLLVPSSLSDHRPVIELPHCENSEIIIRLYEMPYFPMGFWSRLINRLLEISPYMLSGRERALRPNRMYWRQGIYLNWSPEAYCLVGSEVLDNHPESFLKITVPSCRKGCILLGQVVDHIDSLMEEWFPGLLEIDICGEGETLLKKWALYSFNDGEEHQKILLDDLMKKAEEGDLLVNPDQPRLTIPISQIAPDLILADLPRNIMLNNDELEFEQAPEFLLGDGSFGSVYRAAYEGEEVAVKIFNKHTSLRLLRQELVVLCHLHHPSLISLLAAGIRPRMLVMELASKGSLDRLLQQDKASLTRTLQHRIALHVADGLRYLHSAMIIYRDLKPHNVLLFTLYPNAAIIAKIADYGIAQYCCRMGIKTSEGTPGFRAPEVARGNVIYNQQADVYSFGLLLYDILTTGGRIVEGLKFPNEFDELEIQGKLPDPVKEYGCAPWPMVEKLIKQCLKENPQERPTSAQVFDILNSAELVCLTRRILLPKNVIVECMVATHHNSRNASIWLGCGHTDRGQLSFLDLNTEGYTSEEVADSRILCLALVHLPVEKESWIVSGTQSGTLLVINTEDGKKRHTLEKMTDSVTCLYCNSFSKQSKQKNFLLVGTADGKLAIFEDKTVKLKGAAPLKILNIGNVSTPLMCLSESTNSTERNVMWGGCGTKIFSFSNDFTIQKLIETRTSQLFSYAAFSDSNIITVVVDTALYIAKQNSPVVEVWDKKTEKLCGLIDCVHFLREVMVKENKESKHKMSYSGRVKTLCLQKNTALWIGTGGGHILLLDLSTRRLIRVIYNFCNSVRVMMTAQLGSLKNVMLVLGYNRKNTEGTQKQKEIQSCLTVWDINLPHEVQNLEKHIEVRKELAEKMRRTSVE
# T1 sequence (Q5S007 whole entry G2019S): as the sequence (Q5S007 whole entry) above, with G2019S counted along it
Dmax [1] [%],DC50 [1] [nM],Dmax [2] [%],DC50 [2] [nM],SMILES
< 50,10 to 50,< 50,≥ 100,"CC1=C(C(=O)Nc2ccc3[nH]nc(-c4ccnc(N5CCN(CC6CCN(CC7CCN(c8ccc9c(c8)C(=O)N(C8CCC(=O)NC8=O)C9=O)CC7)CC6)CC5)c4)c3c2)C(C)(C)n2nnnc2N1C (stereo not shown) [compound 29, N-{3-[2-(4-{[1-({1-[2-(2,6-dioxopiperidin-3-yl)-1,3-dioxo-2,3-dihydro-1H-isoindol-5-yl]piperidin-4-yl}methyl)piperidin-4-yl]methyl}piperazin-1-yl)pyridin-4-yl]-1H-indazol-5-yl}-4,5,7,7-tetramethyl-4H,7H-[1,2,3,4]tetrazolo[1,5-a]pyrimidine-6-carboxamide]"
50 to 70,< 10,50 to 70,10 to 50,"CC1=C(C(=O)Nc2ccc3[nH]nc(-c4ccnc(N5C[C@@H](C)N(CC6CCN(CC7CCN(c8ccc9c(c8)C(=O)N(C8CCC(=O)NC8=O)C9=O)CC7)CC6)[C@@H](C)C5)c4)c3c2)Cn2nnnc2N1C (stereo partly drawn) [compound 1, N-(3-(2-((3S,5R)-4-((1-((1-(2-(2,6-dioxopiperidin-3-yl)-1,3-dioxoisoindolin-5-yl)piperidin-4-yl)methyl)piperidin-4-yl)methyl)-3,5-dimethylpiperazin-1-yl)pyridin-4-yl)-1H-indazol-5-yl)-4,5-dimethyl-4,7-dihydrotetrazolo[1,5-a]pyrimidine-6-carboxamide]"
–,≥ 100,–,≥ 100,"CC1=C(C(=O)Nc2ccc3[nH]nc(-c4ccnc(N5C[C@@H](C)N(CCOCCOCCN6CCN(c7ccc8c(c7)C(=O)N(C7CCC(=O)NC7=O)C8=O)CC6)[C@@H](C)C5)c4)c3c2)Cn2nnnc2N1C (stereo partly drawn) [compound 4, N-(3-(2-((3R,5S)-4-(2-(2-(2-(4-(2-(2,6-dioxopiperidin-3-yl)-1,3-dioxoisoindolin-5-yl)piperazin-1-yl)ethoxy)ethoxy)ethyl)-3,5-dimethylpiperazin-1-yl)pyridin-4-yl)-1H-indazol-5-yl)-4,5-dimethyl-4,7-dihydrotetrazolo[1,5-a]pyrimidine-6-carboxamide]"
50 to 70,50 to 100,< 50,≥ 100,"CC1=C(C(=O)Nc2ccc3[nH]nc(-c4ccnc(N5CCN(CC6CCN(CC7CCN(c8ccc9c(c8)C(=O)N(C8CCC(=O)NC8=O)C9=O)CC7)CC6)[C@@H](C)C5)c4)c3c2)[C@H](C)n2nnnc2N1C (single isomer, unassigned) [compound 9]"
< 50,10 to 50,< 50,≥ 100,"CC1=C(C(=O)Nc2ccc3[nH]nc(-c4ccnc(N5C[C@@H](C)N(CC6CCN(CC7CCN(c8ccc9c(c8)C(=O)N(C8CCC(=O)NC8=O)C9=O)CC7)CC6)[C@@H](C)C5)c4)c3c2)C(C)(C)n2nnnc2N1C (stereo partly drawn) [compound 6, N-(3-(2-((3S,5R)-4-((1-((1-(2-(2,6-dioxopiperidin-3-yl)-1,3-dioxoisoindolin-5-yl)piperidin-4-yl)methyl)piperidin-4-yl)methyl)-3,5-dimethylpiperazin-1-yl)pyridin-4-yl)-1H-indazol-5-yl)-4,5,7,7-tetramethyl-4,7-dihydrotetrazolo[1,5-a]pyrimidine-6-carboxamide]"
< 50,≥ 100,–,≥ 100,"CC1=C(C(=O)Nc2ccc3[nH]nc(-c4ccnc(N5CCN(CCN6CCC(CN7CCN(c8ccc9c(c8)C(=O)N(C8CCC(=O)NC8=O)C9=O)CC7)CC6)[C@@H](C)C5)c4)c3c2)C(C)(C)n2nnnc2N1C (stereo partly drawn) [compound 36, N-(3-{2-[(3S)-4-{2-[4-({4-[2-(2,6-dioxopiperidin-3-yl)-1,3-dioxo-2,3-dihydro-1H-isoindol-5-yl]piperazin-1-yl}methyl)piperidin-1-yl]ethyl}-3-methylpiperazin-1-yl]pyridin-4-yl}-1H-indazol-5-yl)-4,5,7,7-tetramethyl-4H,7H-[1,2,3,4]tetrazolo[1,5-a]pyrimidine-6-carboxamide]"
50 to 70,10 to 50,50 to 70,50 to 100,"CC1=C(C(=O)Nc2ccc3[nH]nc(-c4ccnc(N5CCN(CCN6CCC(CC7CCN(c8ccc9c(c8)C(=O)N(C8CCC(=O)NC8=O)C9=O)CC7)CC6)CC5)c4)c3c2)[C@@H](C)n2nnnc2N1C (stereo partly drawn) [compound 23, (7R)-N-(3-(2-(4-(2-(4-((1-(2-(2,6-dioxopiperidin-3-yl)-1,3-dioxoisoindolin-5-yl)piperidin-4-yl)methyl)piperidin-1-yl)ethyl)piperazin-1-yl)pyridin-4-yl)-1H-indazol-5-yl)-4,5,7-trimethyl-4,7-dihydrotetrazolo[1,5-a]pyrimidine-6-carboxamide]"
